Legend:
[1] = tested on: Cytochrome P450 wildtype (Zea mays); test: Herbicide tolerance of transiently transformed tobacco leaf discs, PSII yield (PAM imaging); conditions: IC50 of PSII yield inhibition, Nicotiana benthamiana leaf discs expressing Zea mays Cytochrome P450 wildtype versus empty vector-transformed leaf discs
[2] = tested on: Protoporphyrinogen IX Oxidase (PPO) wildtype; test: as above; assay type: cell-based; conditions: IC50 of PSII yield inhibition, Nicotiana benthamiana leaf discs expressing Alopecurus myosuroides PPO wildtype versus empty vector-transformed leaf discs
[3] = tested on: Protoporphyrinogen IX Oxidase (PPO) L397Q_F420M; assay type: cell-based, Amaranthus tuberculatus
[4] = target: T1, Transketolase wildtype (Spinacia oleracea) (Spinacia oleracea, UniProt O20250); test: Herbicide tolerance of transiently transformed tobacco leaf discs, PSII yield (PAM imaging); assay type: cell-based; conditions: IC50 of PSII yield inhibition, Nicotiana benthamiana leaf discs expressing Spinacia oleracea Transketolase wildtype versus empty vector-transformed leaf discs
T1 construct: expressed in transfected cells; host or cells: Nicotiana benthamiana leaves, Agrobacterium tumefaciens GV2260 infiltration
T1 sequence (O20250 67-741): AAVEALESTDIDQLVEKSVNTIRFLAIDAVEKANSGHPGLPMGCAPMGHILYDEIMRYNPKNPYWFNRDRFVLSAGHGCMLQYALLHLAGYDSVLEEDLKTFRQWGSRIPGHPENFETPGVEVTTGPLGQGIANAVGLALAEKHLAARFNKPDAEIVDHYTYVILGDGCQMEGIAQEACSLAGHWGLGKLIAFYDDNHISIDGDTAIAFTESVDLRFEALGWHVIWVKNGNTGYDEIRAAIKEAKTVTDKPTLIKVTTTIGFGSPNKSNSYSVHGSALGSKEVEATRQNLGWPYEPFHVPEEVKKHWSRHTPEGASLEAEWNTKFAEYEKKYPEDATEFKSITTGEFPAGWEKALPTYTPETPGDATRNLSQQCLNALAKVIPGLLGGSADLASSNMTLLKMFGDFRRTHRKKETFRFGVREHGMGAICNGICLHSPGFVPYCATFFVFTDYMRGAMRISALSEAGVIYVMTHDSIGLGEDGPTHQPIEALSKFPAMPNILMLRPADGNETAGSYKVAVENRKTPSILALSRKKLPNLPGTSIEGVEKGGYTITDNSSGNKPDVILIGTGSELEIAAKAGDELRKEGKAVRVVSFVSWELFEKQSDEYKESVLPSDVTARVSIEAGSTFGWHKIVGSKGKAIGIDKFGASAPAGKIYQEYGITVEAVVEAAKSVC

CC(C)N1C(=O)c2ccccc2NS1(=O)=O [Bentazon]
Tolerance factor [1]: 13.4

CC(C)N(C)S(=O)(=O)NC(=O)c1cc(-n2c(=O)cc(C(F)(F)F)n(C)c2=O)c(F)cc1Cl [Saflufenacil]
Tolerance factor [2]: 177
Tolerance factor [3]: 150

C/C=C1/CC2=C(C(=O)OC2=O)[C@H](CCC)[C@H](O)C(=O)C[C@@H]1O [Cornexistin]
Tolerance factor [4]: 3.6

Reference: patent US10508285B2, “Method for screening of genes conferring increased tolerance to herbicides” (priority 2014, dated 2019)
